How the values were obtained:
[1] = Duration of action in rats as assessed from the decrease in body core temperature; type: in vivo; settings: male Wistar rats, i.p.; for PE, Δ ° C. (peak effect, maximum decrease in body temperature): radiotelemetry core body temperature, versus last value prior to treatment; for D, hours (duration of action): time from treatment to return of body temperature to the control level
Procedure: At least one week prior to treatments six male Wistar rats were anaesthetised with pentobarbital-Na (60 mg/kg, i.p.; Nembutal, Phylaxia-Sanofi, Budapest). Using sterile surgical procedures TL11M2-C50-PXT or TA10TA-F40 type radiotelemetry transmitters (Data Sciences International, St. Paul, Minn., USA) permitting continuous monitoring of core body temperature were implanted into the peritoneal cavity of the animals. After surgery the rats were treated with an antibiotic (1 ml/kg b.w. i.m. Tardomyocel, Bayer A G, Leverkusen, Germany). The animals were housed individually in type 2 plastic rat cages with free access to food and tap water. The compounds were dissolved in 5 M hydrochloric acid solution and distilled water (5%/95% v/v) then the pH of the solution was adjusted to 3 using 1 M sodium hydroxide solution. The compounds were administered intraperitoneally in a volume of 10 ml/kg.
Radio signals emitted by the transmitters were detected by RLA1000 type receivers placed under each animal's cage. Data were collected and saved by a Dataquest IV computerised data acquisition system. The computer was set to sample body temperature for 10 seconds in every second minute. Mean values for 30 min periods over the whole day were calculated running the “Sort Utility” of the Dataquest IV. […] The upper and lower limits of the evaluating routine were set to exclude biologically improbable values. Individual body temperature curves were averaged for the six animals.
Peak effect (PE) was measured as the maximum decrease in body temperature in comparison to the last value prior to treatment. Using mean values, duration of action (D) was measured as the time interval from treatment to return of body temperature to the control level.

[2] = test system: MgCl2-induced global cerebral ischemia in mice; assay: Neuroprotective effect in MgCl2-induced global cerebral ischemia in mice; type: in vivo; settings: dose that prolonged survival time by 50%; i.p. 30 min before i.v. saturated MgCl2 (5 ml/kg); male NMRI mice
Procedure: Male NMRI mice weighing 20–25 g were randomly allocated to treatment groups of 10 animals/group. The compounds were dissolved in 5 M hydrochloric acid solution and distilled water (5%/95% v/v) then the pH of the solution was adjusted to 3 using 1 M sodium hydroxide solution. The compounds were administered intraperitoneally in a volume of 10 ml/kg. Each compound was tested at four increasing dose levels and a separate group of animals was treated with the vehicle. Thirty min after treatment all mice received an intravenous bolus injection of saturated MgCl2 solution (5 ml/kg) that caused an immediate cardiac arrest and complete cerebral ischemia. Increases in survival time (interval between the injection of MgCl2 and the last observable gasp) were used as a measure of neuroprotective effect as described by Berga et al.. Percentage changes in survival time were calculated in comparison to that measured in the vehicle treated group. PD50 (the dose that prolonged survival by 50%) was calculated by linear regression analysis using percentage changes in survival time.

Row | Structure (SMILES) | melting point | also measured
1 | Cc1cc(C2=NN=C(C=NNC(N)=O)Cc3cc4c(cc32)OCO4)ccc1[N+](=O)[O-] | 260 to 264 °C | 
2 | Cc1cc(C2=NNC(C)(C#N)Cc3cc4c(cc32)OCO4)ccc1[N+](=O)[O-] (racemic) | 148 to 151 °C | 
3 | Cc1cc(C2=NN=C(C(=O)O)Cc3cc4c(cc32)OCO4)ccc1[N+](=O)[O-] | 185 to 186 °C | 
4 | CCC(=O)N1N=C(c2ccc([N+](=O)[O-])c(C)c2)c2cc3c(cc2CC1C)OCO3 (racemic) | 172 to 175 °C | 
5 | CC(=O)N1N=C(c2ccc([N+](=O)[O-])c(C)c2)c2cc3c(cc2CC1C)OCO3 (racemic) | 178 to 181 °C | 
6 | CNC(=O)N1N=C(c2ccc(N)c(C)c2)c2cc3c(cc2CC1C)OCO3 (racemic) [Example 31, (±)-5-(4-amino-3-methyl-phenyl)-7,8-dihydro-8-methyl-7-(N-methyl-carbamoyl)-9H-1,3-dioxolo[4.5-h][2.3]benzodiazepine] |  | PE, Δ ° C. (peak effect, maximum decrease in body temperature) [1]: −1.46 °C; D, hours (duration of action) [1]: 20 h
7 | CC(=O)N1N=C(c2ccc([N+](=O)[O-])c(C)c2)c2cc3c(cc2CC1(C)C#N)OCO3 (racemic) | 253 to 255 °C | 
8 | CC(=O)N1N=C(c2ccc(N)c(C)c2)c2cc3c(cc2CC1C)OCO3 (racemic) [Example 27, (±)-7-acetyl-5-(4-amino-3-methyl-phenyl)-7,8-dihydro-8-methyl-9H-1,3-dioxolo[4,5-h][2,3]benzodiazepine] | 121 to 123 °C | PD50, mg/kg i.p. [2]: 5.4 mg/kg; PE, Δ ° C. (peak effect, maximum decrease in body temperature) [1]: −1.45 °C; D, hours (duration of action) [1]: >20 h
9 | CC(=O)N1N=C(c2ccc(N)c(C)c2)c2cc3c(cc2C=C1C)OCO3 | 222 to 223 °C | 
10 | Cc1cc(C2=NN(C(=O)NC3CC3)C(C)Cc3cc4c(cc32)OCO4)ccc1N (racemic) | 179 to 181 °C | 
11 | Cc1cc(C2=NN=C(C=O)Cc3cc4c(cc32)OCO4)ccc1[N+](=O)[O-] | 188 to 191 °C | 
12 | CONC(=O)N1N=C(c2ccc(N)c(C)c2)c2cc3c(cc2CC1C)OCO3 (racemic) [Example 30, (±)-5-(4-amino-3-methyl-phenyl)-7,8-dihydro-8-methyl-7-(N-methozy-carbamoyl)-9H-1,3-dioxolo[4,5-h][2,3]benzodiazepine] |  | PD50, mg/kg i.p. [2]: 14.9 mg/kg
13 | Cc1cc(C2=NN=C(C#N)Cc3cc4c(cc32)OCO4)ccc1N | 252 to 255 °C | 
14 | CC(=O)N1N=C(c2ccc([N+](=O)[O-])c(C)c2)c2cc3c(cc2CC1C(N)=O)OCO3 (racemic) | 157 to 161 °C | 
15 | CC(=O)N1N=C(c2ccc(N)c(C)c2)c2cc3c(cc2CC1(C)C#N)OCO3 (racemic) [Example 38, (±)-7-acetyl-5-(4-amino-3-methyl-phenyl)-8-cyano-7,8-dihydro-8-methyl-9H-1,3-dioxolo[4.5-h][2.3]benzodiazepine] |  | PD50, mg/kg i.p. [2]: 11.2 mg/kg; PE, Δ ° C. (peak effect, maximum decrease in body temperature) [1]: −1.34 °C; D, hours (duration of action) [1]: 9 h
16 | CC1=Cc2cc3c(cc2C(c2ccc([N+](=O)[O-])c(C)c2)=NN1C(=O)NC1CC1)OCO3 | 198 to 202 °C | 
17 | CCC(=O)N1N=C(c2ccc([N+](=O)[O-])c(C)c2)c2cc3c(cc2CC1(C)C#N)OCO3 (racemic) | 191 to 193 °C | 
18 | CC1=NN=C(c2ccc([N+](=O)[O-])c(C)c2)c2cc3c(cc2C1)OCO3 | 189 to 194 °C | 

Reference: patent publication US7053082B1, “2,3-benzodiazepine derivatives” (priority 1999, dated 2006)
